Test results taken from PubChem BioAssay AID248 (DTP/NCI, 2004).
Inconclusive results and toxic doses are left out. Rule as the data show it: active = T/C of 150% or more; inactive = T/C below 125%.

Tested on: L1210 leukemia ip in BDF1 mice, survival T/C
Assay: NCI In Vivo Anticancer Drug Screen. Data for tumor model L1210 Leukemia (intraperitoneal) in B6D2F1 (BDF1) mice
Details: endpoint: mean survival time, higher = longer survival
Summary of the method: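 Read-out is survival time, reported as the treated-group measurement over the vehicle-control measurement.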

[1] = dose: 400.0 mg/kg/injection, schedule: Q04DX002 (ip), vehicle: saline with Tween-80
[2] = dose: 100.0 mg/kg/injection, schedule: Q01DX001 (ip), vehicle: carboxymethylcellulose (CMC)
[3] = dose: 100.0 mg/kg/injection, schedule: Q04DX002 (ip), vehicle: Klucel (hydroxypropylcellulose) (HPC)
[4] = dose: 200.0 mg/kg/injection, schedule: Q04DX002 (ip), vehicle: Klucel (hydroxypropylcellulose) (HPC)
[5] = dose: 100.0 mg/kg/injection, schedule: Q01DX009 (ip), vehicle: Klucel (hydroxypropylcellulose) (HPC)
[6] = dose: 200.0 mg/kg/injection, schedule: Q01DX001 (ip), vehicle: carboxymethylcellulose (CMC)
[7] = dose: 200.0 mg/kg/injection, schedule: Q01DX009 (ip), vehicle: Klucel (hydroxypropylcellulose) (HPC)
[8] = dose: 400.0 mg/kg/injection, schedule: Q01DX001 (ip), vehicle: carboxymethylcellulose (CMC)
[9] = dose: 400.0 mg/kg/injection, schedule: Q01DX009 (ip), vehicle: Klucel (hydroxypropylcellulose) (HPC)
[10] = dose: 100.0 mg/kg/injection, schedule: Q04DX003 (ip), vehicle: saline
[11] = dose: 300.0 mg/kg/injection, schedule: Q01DX001 (ip), vehicle: Klucel (hydroxypropylcellulose) (HPC)
[12] = dose: 100.0 mg/kg/injection, schedule: Q01DX009 (ip), vehicle: saline with Tween-80
[13] = dose: 100.0 mg/kg/injection, schedule: Q01DX001 (ip), vehicle: Klucel (hydroxypropylcellulose) (HPC)
[14] = dose: 200.0 mg/kg/injection, schedule: Q01DX001 (ip), vehicle: Klucel (hydroxypropylcellulose) (HPC)

Measured: T/C

OCC1OCOC2C(CO)OCOC12 (stereo unspecified)
inactive: dose: 25.6 mg/kg/injection, schedule: Q04DX002 (ip), vehicle: saline with Tween-80 104 % of control | dose: 64.0 mg/kg/injection, schedule: Q04DX002 (ip), vehicle: saline with Tween-80 101 % of control | dose: 160.0 mg/kg/injection, schedule: Q04DX002 (ip), vehicle: saline with Tween-80 101 % of control | [1] 96 % of control

C=CCN(CC=C)c1nc(Cl)nc(Cl)n1
inactive: dose: 50.0 mg/kg/injection, schedule: Q01DX001 (ip), vehicle: carboxymethylcellulose (CMC) 106 % of control | [2] 98 % of control | [3] 105 % of control | [4] 101 % of control

CCC(=O)n1cc2ccc([N+](=O)[O-])cc2n1
inactive: [3] 112 % of control | [4] 104 % of control | dose: 400.0 mg/kg/injection, schedule: Q04DX002 (ip), vehicle: Klucel (hydroxypropylcellulose) (HPC) 101 % of control

Cc1cn(CC(C)C)c(=O)n(-c2ccccc2)c1=O
inactive: dose: 100.0 mg/kg/injection, schedule: Q01DX Z (ip), vehicle: methylcellulose (MC) 95 % of control

O=C(OC1COC(n2c(=O)oc3ccc(F)cc32)C(OC(=O)c2ccccc2)C1OC(=O)c1ccccc1)c1ccccc1 (stereo unspecified)
inactive: [2] 91 % of control | [5] 94 % of control | [6] 89 % of control | [7] 89 % of control | [8] 89 % of control | [9] 87 % of control

CC(=O)CC(=O)NCCNCCNC(=O)CC(C)=O
inactive: dose: 100.0 mg/kg/injection, schedule: Q01DX009 (ip), vehicle: saline 88 % of control | [10] 91 % of control | dose: 200.0 mg/kg/injection, schedule: Q01DX009 (ip), vehicle: saline 95 % of control | dose: 200.0 mg/kg/injection, schedule: Q04DX003 (ip), vehicle: saline 98 % of control | dose: 400.0 mg/kg/injection, schedule: Q01DX009 (ip), vehicle: saline 97 % of control | dose: 400.0 mg/kg/injection, schedule: Q04DX003 (ip), vehicle: saline 100 % of control

COc1ccc(OC)c(C2(O)C=C(C)C(=O)C=C2C)c1 (stereo unspecified)
inactive: dose: 150.0 mg/kg/injection, schedule: Q01DX001 (ip), vehicle: Klucel (hydroxypropylcellulose) (HPC) 91 % of control | [11] 91 % of control

Clc1cccc(C[N+]23CC[N+](Cc4cccc(Cl)c4)(CC2)C3)c1
inactive: dose: 100.0 mg/kg/injection, schedule: Q01DX001 (ip), vehicle: saline 103 % of control | dose: 200.0 mg/kg/injection, schedule: Q01DX001 (ip), vehicle: saline 111 % of control

Cc1cc(NCC2CCNCC2)nc(/N=C(\N)Nc2ccc(Cl)c(Cl)c2)n1
inactive: dose: 12.5 mg/kg/injection, schedule: Q04DX003 (ip), vehicle: saline 102 % of control | dose: 25.0 mg/kg/injection, schedule: Q04DX003 (ip), vehicle: saline 113 % of control | dose: 50.0 mg/kg/injection, schedule: Q04DX003 (ip), vehicle: saline 102 % of control | [10] 106 % of control

CC1=C(Cl)CS(=O)(=O)C1
inactive: dose: 100.0 mg/kg/injection, schedule: Q01DX001 (ip), vehicle: saline with Tween-80 104 % of control | dose: 200.0 mg/kg/injection, schedule: Q01DX001 (ip), vehicle: saline with Tween-80 100 % of control

CC(=O)OCCCc1ccccc1
inactive: [5] 94 % of control | dose: 100.0 mg/kg/injection, schedule: Q04DX003 (ip), vehicle: Klucel (hydroxypropylcellulose) (HPC) 98 % of control | [7] 95 % of control | dose: 200.0 mg/kg/injection, schedule: Q04DX003 (ip), vehicle: Klucel (hydroxypropylcellulose) (HPC) 97 % of control | [9] 94 % of control | dose: 400.0 mg/kg/injection, schedule: Q04DX003 (ip), vehicle: Klucel (hydroxypropylcellulose) (HPC) 94 % of control

CCOc1ccc(-c2nnc(Nc3ccc(S(=O)(=O)N4CCCCC4)cc3)s2)cc1
inactive: [12] 87 % of control | dose: 100.0 mg/kg/injection, schedule: Q04DX002 (ip), vehicle: saline with Tween-80 96 % of control | dose: 200.0 mg/kg/injection, schedule: Q04DX002 (ip), vehicle: saline with Tween-80 93 % of control | [1] 90 % of control

CC(=O)NCC(=O)O
inactive: [13] 113 % of control | [14] 95 % of control | [11] 94 % of control

CC(=O)[O][Hg][c]1cc2c(cc1N)C(=O)c1ccccc1-2
inactive: dose: 12.5 mg/kg/injection, schedule: Q01DX001 (ip), vehicle: carboxymethylcellulose (CMC) 102 % of control

Nc1cc(Br)cc2[nH]c(=O)c3cc(Br)ccc3c12
inactive: [2] 100 % of control | [6] 100 % of control | [8] 102 % of control

COc1ccc2[nH]c3c(C)cc(C=O)c(C)c3c2c1
inactive: dose: 100.0 mg/kg/injection, schedule: Q01DX001 (ip), vehicle: other 101 % of control | dose: 100.0 mg/kg/injection, schedule: Q04DX003 (ip), vehicle: saline with Tween-80 102 % of control | dose: 200.0 mg/kg/injection, schedule: Q01DX001 (ip), vehicle: other 95 % of control | dose: 200.0 mg/kg/injection, schedule: Q04DX003 (ip), vehicle: saline with Tween-80 101 % of control | dose: 400.0 mg/kg/injection, schedule: Q01DX001 (ip), vehicle: other 91 % of control | dose: 400.0 mg/kg/injection, schedule: Q04DX003 (ip), vehicle: saline with Tween-80 96 % of control

O=C(/C=C\c1ccccc1[N+](=O)[O-])C(=O)/C=C/c1ccccc1[N+](=O)[O-]
inactive: [13] 93 % of control | [14] 92 % of control | dose: 400.0 mg/kg/injection, schedule: Q01DX001 (ip), vehicle: Klucel (hydroxypropylcellulose) (HPC) 88 % of control

C#CCCCOC(=O)Nc1ccccc1
inactive: dose: 50.0 mg/kg/injection, schedule: Q01DX009 (ip), vehicle: Klucel (hydroxypropylcellulose) (HPC) 97 % of control | [5] 103 % of control | [7] 89 % of control

Cc1cccnc1NC1=NCCO1
inactive: [12] 100 % of control | dose: 200.0 mg/kg/injection, schedule: Q01DX009 (ip), vehicle: saline with Tween-80 96 % of control | dose: 400.0 mg/kg/injection, schedule: Q01DX009 (ip), vehicle: saline with Tween-80 93 % of control
